Test results from patent US20210070747A1, “2(1H)-QUINOLINONE DERIVATIVE” (priority 2017, published 2021).
≈ marks a conversion by molar mass, not a printed value.

Columns and labels:
E. coli DNA gyrase [1] = molecular target: T1, E. coli DNA gyrase (Escherichia coli, UniProt P0AES6); assay: Test for evaluating the activity of inhibiting E. coli DNA gyrase enzyme (Method 1, supercoiling, Inspiralis enzyme); assay type: biochemical; details: Method 1; for IC50: read-out: E. Coli Gyrase supercoiling IC50
T1 construct: made in house; host or cells: E. coli BL21 (DE3)
Method: Test Example 1-1 Test for Evaluating the Activity of Inhibiting E. coli DNA Gyrase Enzyme (Method 1)
The enzymatic activity of E. coli DNA gyrase was measured by a method comprising reacting DNA gyrase and its substrate, relaxed pBR322 (Inspiralis), in the presence of ATP and detecting the post-reaction supercoiled pBR322/relaxed pBR322 ratio with H19 (Profoldin).
Specifically, to 1 ng/μL of relaxed pBR322, E. coli DNA gyrase enzyme (Inspiralis) was added at a final concentration of 0.006 U/μL and the mixture was incubated for 60 minutes at room temperature. This reaction was carried out in 20 mmol/L tris-HCl buffered solution (pH 8.0) comprising 0.5 mmol/L ATP, 0.005% bridge 35, 35 mmol/L ammonium acetate, 8 mmol/L magnesium chloride, 4.6% glycerol, and 1 mmol/L dithiothreitol. To the reaction mixture, H19 was added to bring the reaction to an end; thereafter, the supercoiled pBR322/relaxed pBR322 ratio was detected at excitation wavelength/emission wavelength=485 nm/535 nm. An inhibition curve was obtained by allowing the analyte compound to be present at varying concentrations during the reaction described above. […] The test results of interest are shown in [Table 20-1] and [Table 20-2].

E. Coli ATCC 25922 = assay: Test for evaluating antibacterial activity (E. coli), broth microdilution MIC; assay type: cell-based; details: Escherichia coli, ATCC25922; 35° C., 18 hours, cation-adjusted Mueller-Hinton medium
In short: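 Broth microdilution per modified CLSI method in cation-adjusted Mueller-Hinton medium. Inoculum from overnight heart infusion agar growth, McFarland 0.5 suspension diluted 10-fold; incubation 35° C for 18 hours. MIC taken as lowest drug concentration with no visible growth.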

E. coli DNA gyrase [2] = molecular target: T1, E. coli DNA gyrase; assay: Test for evaluating the activity of inhibiting E. coli DNA gyrase enzyme (Method 2, supercoiling, recombinant gyrA/gyrB complex); assay type: biochemical
In short: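 Recombinant E. coli gyrA/gyrB complex (His-tagged, BL21(DE3)-expressed, Ni-NTA purified; 0.135 nmol/mL final) supercoiled relaxed pBR322 (1 ng/μL) with 0.5 mmol/L ATP in pH 8.0 Tris buffer, 60 min at room temperature. H19 stopped the reaction; supercoiled/relaxed ratio read at 485/535 nm, inhibition curves built from varying compound concentrations.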

[3] = test system: N. gonorrhoeae ATCC 49226; assay: Test for evaluating antibacterial activity (N. gonorrhoeae), broth microdilution MIC; assay type: cell-based; details: Neisseria gonorrhoeae, ATCC49226; 35° C., 24 hours, gonococcal broth
Method: Minimum inhibitory concentration (MIC) was measured using the broth microdilution method described below in accordance with a modification of the method of Geers et al. (Antimicrob. Agents. Chemother. (1989), 33, 233-234).
After sterilization, BD. Difco supplement C was added to give a final concentration of 1%, whereby a gonococcal broth was prepared.
Bacterial cells under test were cultured overnight on a chocolate II agar medium, scraped off and suspended at a concentration equivalent to McFarland 0.5 turbidity; the suspension thus obtained was diluted 5 folds to give a liquid inoculum. The inoculum (0.005 mL) was inoculated on a gonococcal broth containing the analyte compound and cultured at 35° C. for 24 hours. A minimum drug concentration at which no bacterial growth was macroscopically visible was designated MIC.

[4] = Method 2, read-out: E. Coli Gyrase supercoiling IC50

CNc1cccc2cc(C(=O)NC3CCN(c4ncc(C(=O)O)s4)C3)c(=O)[nH]c12 (stereo not shown) [Example 9, 2-(3-{[8-(methylamino)-2-oxo-1,2-dihydroquinoline-3-carbonyl]amino}pyrrolidine-1-yl)-1,3-thiazole-5-carboxylic acid] showed an IC50 (E. coli DNA gyrase [1]) of 51.7 nM and an MIC (E. Coli ATCC 25922) of over 64 µg/mL.

In the case of CNc1cccc2cc(C(=O)NC3CN(c4ncc(C(=O)O)s4)C3)c(=O)[nH]c12 [Example 10, 2-(3-{[8-(methylamino)-2-oxo-1,2-dihydroquinoline-3-carbonyl]amino}azetidine-1-yl)-1,3-thiazole-5-carboxylic acid], the IC50 (E. coli DNA gyrase [1]) is reported as 459 nM and the MIC (E. Coli ATCC 25922) is reported as over 64 µg/mL.

CNc1cccc2cc(C(=O)Nc3ccccc3)c(=O)[nH]c12 [Example 11, 8-(methylamino)-2-oxo-N-phenyl-1,2-dihydroquinoline-3-carboxamide] showed an IC50 (E. coli DNA gyrase [1]) of 245 nM and an MIC (E. Coli ATCC 25922) of over 64 µg/mL.

CNc1cccc2cc(C(=O)Nc3cncnc3)c(=O)[nH]c12 [Example 12, 8-(methylamino)-2-oxo-N-(pyrimidine-5-yl)-1,2-dihydroquinoline-3-carboxamide] was tested, and the IC50 (E. coli DNA gyrase [1]) was 21.1 nM and the MIC (E. Coli ATCC 25922) was over 64 µg/mL.

For CNc1cccc2cc(C(=O)N[C@@H](Cc3c[nH]cn3)C(=O)O)c(=O)[nH]c12 [Example 13, N-[8-(methylamino)-2-oxo-1,2-dihydroquinoline-3-carbonyl]-L-histidine-trifluoroacetate], the IC50 (E. coli DNA gyrase [1]) was 31700 nM.

In the case of CNc1cccc2cc(C(=O)NCc3ccccn3)c(=O)[nH]c12 [Example 21, 8-(methylamino)-2-oxo-N-[(pyridine-2-yl)methyl]-1,2-dihydroquinoline-3-carboxamide], the inhibition at 3 µM (E. coli DNA gyrase [1]; at 3000 nM) is reported as 44%.

CNc1cc(F)cc2cc(C(=O)NCCc3ccccc3)c(=O)[nH]c12 [Example 78, 6-fluoro-8-(methylamino)-2-oxo-N-(2-phenylethyl)-1,2-dihydroquinoline-3-carboxamide] was tested, and the inhibition at 0.3 µM (E. coli DNA gyrase [1]; at 300 nM) was 12%.

With CNc1cc(F)cc2cc(C(=O)NCCc3ccccn3)c(=O)[nH]c12 [Example 79, 6-fluoro-8-(methylamino)-2-oxo-N-[2-(pyridine-2-yl)ethyl]-1,2-dihydroquinoline-3-carboxamide] the IC50 (E. coli DNA gyrase [1]) was 175 nM.

Molecule CNc1cc(F)cc2cc(C(=O)Nc3ccc(-c4nnn[nH]4)cc3)c(=O)[nH]c12 [Example 149, 6-fluoro-8-(methylamino)-2-oxo-N-[4-(1H-tetrazole-5-yl)phenyl]-1,2-dihydroquinoline-3-carboxamide] has an IC50 (E. coli DNA gyrase [2]; [4]) of 0.55 nM, an MIC (E. Coli ATCC 25922) of over 8 µg/mL and an MIC [3] of 0.03 µg/mL (≈ 0.0791 µM).

CNc1cc(F)cc2c(O)c(C(=O)Nc3ccc(C(=N)N)cc3)c(=O)[nH]c12 [Example 150, N-(4-Carbamimidoylphenyl)-6-fluoro-4-hydroxy-8-(methylamino)-2-oxo-1,2-dihydroquinoline-3-carboxamide] gave an IC50 (E. coli DNA gyrase [2]; [4]) of 89.3 nM, an MIC (E. Coli ATCC 25922) of over 16 µg/mL and an MIC [3] of 0.03 µg/mL (≈ 0.0812 µM).

CNc1cc(F)cc2cc(C(=O)Nc3ccc(S(C)(=N)=O)cc3)c(=O)[nH]c12 (stereo not shown) [Example 151, 6-Fluoro-N-[4-(S-methanesulfonimidoyl)phenyl]-8-(methylamino)-2-oxo-1,2-dihydroquinoline-3-carboxamide] showed an IC50 (E. coli DNA gyrase [2]) of 21.4 nM, an MIC (E. Coli ATCC 25922) of over 16 µg/mL and an MIC [3] of 0.5 µg/mL (≈ 1.29 µM).

CNc1cc(F)cc2c(O)c(C(=O)Nc3ccc(C(=O)OC)cc3CN3CCCCC3)c(=O)[nH]c12 [Example 152, Methyl 4-[[6-fluoro-4-hydroxy-8-(methylamino)-2-oxo-1,2-dihydroquinoline-3-carbonyl]amino]-3-[(piperidin-1-yl)methyl]benzoate] showed an IC50 (E. coli DNA gyrase [2]; [4]) of 1230 nM, an MIC (E. Coli ATCC 25922) of over 16 µg/mL and an MIC [3] of 4 µg/mL (≈ 8.29 µM).

CNc1cc(F)cc2cc(C(=O)Nc3ccc(NC(=O)NS(C)(=O)=O)cc3)c(=O)[nH]c12 [Example 154, 6-fluoro-N-(4-{[(methanesulfonyl)carbamoyl]amino}phenyl)-8-(methylamino)-2-oxo-1,2-dihydroquinoline-3-carboxamide] showed an IC50 (E. coli DNA gyrase [2]; [4]) of 9.78 nM, an MIC (E. Coli ATCC 25922) of over 16 µg/mL and an MIC [3] of 0.06 µg/mL (≈ 0.134 µM).

CNc1cc(F)cc2c(O)c(C(=O)Nc3ccc(C(=O)O)cc3CN3CCOCC3)c(=O)[nH]c12 [Example 155, 4-[[6-Fluoro-4-hydroxy-8-(methylamino)-2-oxo-1,2-dihydroquinoline-3-carbonyl]amino]-3-[(morpholin-4-yl)methyl]benzoic Acid] was tested, and the IC50 (E. coli DNA gyrase [2]; [4]) was 109 nM, the MIC (E. Coli ATCC 25922) was over 32 µg/mL and the MIC [3] was 0.015 µg/mL (≈ 0.0319 µM).

In the case of CNc1cc(F)cc2c(O)c(C(=O)Nc3ccc(C(=O)O)cc3CN3CCC3)c(=O)[nH]c12.O=CO [Example 156, 3-[(azetidine-1-yl)methyl]-4-{[6-fluoro-4-hydroxy-8-(methylamino)-2-oxo-1,2-dihydroquinoline-3-carbonyl]amino}benzoic acid-formate], the IC50 (E. coli DNA gyrase [2]) is reported as 13.4 nM, the MIC (E. Coli ATCC 25922) is reported as 32 µg/mL and the MIC [3] is reported as 0.5 µg/mL.

CNc1cc(F)cc2c(O)c(C(=O)Nc3ccc(C(=O)O)cc3CN3CCCC3)c(=O)[nH]c12.O=CO [Example 157, 4-{[6-fluoro-4-hydroxy-8-(methylamino)-2-oxo-1,2-dihydroquinoline-3-carbonyl]amino}-3-[(pyrrolidine-1-yl)methyl]benzoic acid-formate] was tested, and the IC50 (E. coli DNA gyrase [2]) was 5.61 nM, the MIC (E. Coli ATCC 25922) was 16 µg/mL and the MIC [3] was 0.12 µg/mL.

CNc1cc(F)cc2cc(C(=O)Nc3ccc(C(O)C(N)=O)cc3)c(=O)[nH]c12 (stereo not shown) [Example 158, N-[4-(2-amino-1-hydroxy-2-oxoethyl)phenyl]-6-fluoro-8-(methylamino)-2-oxo-1,2-dihydroquinoline-3-carboxamide] was tested, and the IC50 (E. coli DNA gyrase [2]; [4]) was 7.78 nM, the MIC (E. Coli ATCC 25922) was over 16 µg/mL and the MIC [3] was 0.03 µg/mL (≈ 0.0781 µM).

Work on CNc1cc(F)cc2cc(C(=O)Nc3ccc(C4OC(=O)NC4=O)cc3)c(=O)[nH]c12 (stereo not shown) [Example 159, N-[4-(2,4-Dioxo-1,3-oxazolidin-5-yl)phenyl]-6-fluoro-8-(methylamino)-2-oxo-1,2-dihydroquinoline-3-carboxamide] yielded an IC50 (E. coli DNA gyrase [2]; [4]) of 1.08 nM, an MIC (E. Coli ATCC 25922) of over 16 µg/mL and an MIC [3] of 0.002 µg/mL (≈ 0.00487 µM).

O=C(O)c1ccc(NC(=O)c2cc3cccc(O)c3[nH]c2=O)cc1 [Example 160, 4-[(8-Hydroxy-2-oxo-1,2-dihydroquinoline-3-carbonyl)amino]benzoic Acid] was tested, and the IC50 (E. coli DNA gyrase [2]; [4]) was 11700 nM, the MIC (E. Coli ATCC 25922) was over 32 µg/mL and the MIC [3] was over 4 µg/mL.

CCc1cccc2cc(C(=O)Nc3ccc(C(=O)O)cc3)c(=O)[nH]c12 [Example 161, 4-[(8-ethyl-2-oxo-1,2-dihydroquinoline-3-carbonyl)amino]benzoic acid] was tested, and the IC50 (E. coli DNA gyrase [2]; [4]) was 2230 nM, the MIC (E. Coli ATCC 25922) was over 32 µg/mL and the MIC [3] was over 4 µg/mL.

In the case of CNc1cc(F)cc2cc(C(=O)Oc3ccc(C(=O)O)cc3)c(=O)[nH]c12 [Example 162, 4-{[6-fluoro-8-(methylamino)-2-oxo-1,2-dihydroquinoline-3-carbonyl]oxy}benzoic acid], the IC50 (E. coli DNA gyrase [2]; [4]) is reported as 3450 nM, the MIC (E. Coli ATCC 25922) is reported as over 32 µg/mL and the MIC [3] is reported as over 1 µg/mL.

CNc1cc(F)cc2cc(CNc3ccc(C(=O)O)cc3)c(=O)[nH]c12 [Example 163, 4-([[6-Fluoro-8-(methylamino)-2-oxo-1,2-dihydroquinoline-3-yl]methyl]amino)benzoic Acid] was tested, and the IC50 (E. coli DNA gyrase [2]; [4]) was 2100 nM, the MIC (E. Coli ATCC 25922) was over 32 µg/mL and the MIC [3] was over 1 µg/mL.

Molecule CNc1cc(F)cc2c(O)c(C(=O)Nc3ccc(C(=O)NS(=O)(=O)N(C)C)cc3CN3CCCCC3)c(=O)[nH]c12 [Example 164, N-{4-[(dimethyl-sulfamoyl)carbamoyl]-2-[(piperidine-1-yl)methyl]phenyl}-6-fluoro-4-hydroxy-8-(methylamino)-2-oxo-1,2-dihydroquinoline-3-carboxamide] has an IC50 (E. coli DNA gyrase [2]; [4]) of 4.44 nM, an MIC (E. Coli ATCC 25922) of 64 µg/mL (≈ 111 µM) and an MIC [3] of 0.12 µg/mL (≈ 0.209 µM).

In the case of Nc1cccc2cc(C(=O)Nc3cccc(C(=O)O)c3)c(=O)[nH]c12 [Example 165, 3-[(8-Amino-2-oxo-1,2-dihydroquinoline-3-carbonyl)amino]benzoic acid-trifluoroacetate], the inhibition at 50 µM (E. coli DNA gyrase [1]; at 50000 nM) is reported as 27%.

Work on O=C(O)c1ccc(NC(=O)c2cc3ccccc3[nH]c2=O)cc1 [Reference Example 1, 4-[(2-Oxo-1,2-dihydroquinoline-3-carbonyl)amino]benzoic Acid, reference compound] yielded an IC50 (E. coli DNA gyrase [2]; [4]) of 7010 nM, an MIC (E. Coli ATCC 25922) of over 64 µg/mL and an MIC [3] of over 1 µg/mL.
